# In patent US7947275B2 (Signe Biopharma, Inc., priority 2000, dated 2011):
# Where “and” joins values, the source holds several entries; their conditions need not be identical. Equal values may be shown once. Read-outs that look alike come from different tables or passages of the source.
# Legend:
# [1] = tested on: GH4C1, GH1 and GH3 rat pituitary tumor cell lines; assay: Thyroid hormone growth effects with GH cell lines in CDE-horse serum; format: cell-based
# Procedure: Thyroid Hormone Responsive Pituitary Tumor Cell Growth in CDE-Serum Prepared at 34° C. […] Nonetheless, the 34° C. […] It is known that the thyroid hormone receptor is a member of a superfamily of receptors that also includes the steroid hormone receptors (Evans R M (1988) Science (Wash D.C.) 240:889-895). Testing of substances expected to have thyroid hormone like activity can be performed with the GH cell lines in the presence of low concentrations of CDE-serum.
# HT-29 cells = assay: Cell growth assay, HT-29 human colon cancer cells; format: cell-based; settings: CAPM with plasma IgM at 40 μg/mL, increasing concentrations of T3
# Text: General Cell Culture—Growth Assay Methods.
# General Cell Culture—Harvest and Counting Cells.
# General Cell Culture—Quantification of Growth.
# MCF-7K cells = assay: Cell growth assay, MCF-7K human breast cancer cells; settings: serum-free DDM-2MF ± 10 nM E2, 12 days
# human SHBG = human SHBG (Homo sapiens, UniProt P04278); settings: 37° C.; cited from earlier work
# T47D cells = assay: Cell growth assay, T47D human breast cancer cells; settings: serum-free DDM-2MF ± 10 nM E2
# [2] = tested on: progesterone receptors of MTW9/PL2 cells; assay: Estrogen induction of progesterone receptors in MTW9/PL2 cells; format: cell-based, rat; settings: 1.0×10^−8 M E2, within two days; two experiments
# Text: All results were normalized to “receptors per cell” to correct for growth over the duration of the experiment.
# [3] = read-out: Kd of ^3H-E2 specific binding
# [4] = tested on: progesterone receptors of T47D cells; assay: Induction of progesterone receptors in T47D cells; format: cell-based, human; settings: four days, phenol red free medium
# [5] = molecular target: estrogen receptor of H301 cells (Mesocricetus auratus, UniProt Q9QZJ5); settings: cited from earlier work
# ERβ = settings: Transfection Studies, ERβ only; cited from earlier work
# H301 cells = assay: Cell growth assay, H301 kidney tumor cells; settings: serum-free defined CAPM
# [6] = molecular target: T1, CA-PS-Pool I (predominantly CBG) (Equus caballus, UniProt F7DRS2); assay: Scatchard analysis of labeled steroid binding to CA-PS-pool I; parameters: species or system horse; settings: 3H-labeled steroid, 34° C.; read-out: CA-PS-Pool I Kd
# T1 sequence (F7DRS2 23-406): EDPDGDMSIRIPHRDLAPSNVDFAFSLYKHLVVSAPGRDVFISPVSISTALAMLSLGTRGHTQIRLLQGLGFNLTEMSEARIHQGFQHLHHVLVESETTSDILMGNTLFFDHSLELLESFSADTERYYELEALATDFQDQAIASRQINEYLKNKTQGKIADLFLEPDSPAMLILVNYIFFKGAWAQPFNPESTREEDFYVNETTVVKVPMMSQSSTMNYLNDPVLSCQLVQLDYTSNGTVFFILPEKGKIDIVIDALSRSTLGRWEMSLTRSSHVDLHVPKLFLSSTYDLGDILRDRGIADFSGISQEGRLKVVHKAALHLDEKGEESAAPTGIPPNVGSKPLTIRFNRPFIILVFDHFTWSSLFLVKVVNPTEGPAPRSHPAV
# LNCaP cells = assay: Cell growth assay, LNCaP human prostatic carcinoma cells; format: cell-based; settings: D-MEM/F-12 with CDE-horse serum, 10 nM steroid
# Procedure: Specific modifications of the customary cell growth assays were required for assays done under iron-restricted conditions. […] Serum-free components were added to “low-Fe” D-MEM/F-12 at double the concentrations needed (2X) or to “standard” D-MEM/F-12 at (2X) as the experiments dictated. Each assay dish received 1.0 mL of this solution. Next, the cells to be used in the assays were washed three times in either “low-Fe” medium or “standard” medium depending upon the experimental protocol.
# GH4C1 cells = assay: Cell growth assay, GH4C1 rat pituitary tumor cells; settings: serum-free PCM-9
# CA-PS-Pool II = assay: Scatchard analysis of labeled steroid binding to CA-PS-pool II; parameters: species or system horse; settings: 3H-labeled steroid, 34° C.
# [7] = read-out: Kd of ^3H-E2 specific binding; remark: listed apart in the source
# ZR-75-1 cells = assay: Cell growth assay, ZR-75-1 human breast cancer cells; settings: serum-free defined DDM-2MF
# [8] = tested on: MCF-7A, T47D and MTW9/PL2 cells; assay: Direct test of phenol red versus E2 as mitogen with three ER^+ cell lines; format: cell-based; settings: phenol red free D-MEM/F-12 with 30% CDE-HS
# Procedure: Direct Test of Phenol Red Estrogenic Activity. Three cell lines were selected for a direct test of phenol red as a mitogen. […] This concentration was chosen even though it is not as inhibitory as 50% (v/v) serum. This selection was made to reduce possible interactions of the phenol red/contaminant with serum proteins while still retaining a significant inhibitory effect. Phenol red concentrations of up to 16 mg/L were added to this medium. This highest level was twice that in standard commercially formulated Gibco-BRL D-MEM/F-12. […] The preparations used in this study ranged in age from newly obtained to more than ten year old laboratory stocks.
# [9] = tested on: CA-PS-Pool II from rat serum; assay: Scatchard analysis of labeled steroid binding to the SHBG-like pools from rat serum; settings: 3H-labeled steroid
# [10] = molecular target: T2, estrogen receptors of intact T47D cells (Homo sapiens, UniProt P03372); assay: Displacement of ^3H-E2 binding to intact T47D cells; settings: 5 nM ^3H-E2, two hours at 37° C.; r9-r14: 2.5, 5.0, 50, 250, 500, 1000 nM Unlabeled E2; r15-r19: 1, 2, 4, 5, 16 mg/L Phenol Red
# T2 construct: endogenous in cells; host or cells: T47D human breast cancer cells
# Chain of estrogen receptor of H301 cells (Q9QZJ5 whole entry): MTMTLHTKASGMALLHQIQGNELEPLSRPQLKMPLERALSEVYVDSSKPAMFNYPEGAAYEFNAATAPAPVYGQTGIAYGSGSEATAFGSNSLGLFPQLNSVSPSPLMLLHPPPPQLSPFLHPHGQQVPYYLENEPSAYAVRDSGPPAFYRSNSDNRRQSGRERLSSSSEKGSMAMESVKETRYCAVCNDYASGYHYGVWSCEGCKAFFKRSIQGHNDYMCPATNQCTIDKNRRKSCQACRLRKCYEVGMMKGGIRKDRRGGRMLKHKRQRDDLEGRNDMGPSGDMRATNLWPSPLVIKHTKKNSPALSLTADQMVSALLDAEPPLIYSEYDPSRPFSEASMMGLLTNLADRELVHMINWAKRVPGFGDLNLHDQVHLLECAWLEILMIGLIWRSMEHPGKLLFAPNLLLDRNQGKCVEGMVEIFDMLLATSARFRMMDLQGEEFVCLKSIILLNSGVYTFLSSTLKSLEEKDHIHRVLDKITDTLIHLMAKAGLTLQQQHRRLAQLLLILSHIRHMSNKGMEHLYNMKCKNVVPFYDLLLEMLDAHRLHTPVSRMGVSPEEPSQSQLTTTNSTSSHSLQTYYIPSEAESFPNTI
# Chain of human SHBG (P04278 30-402): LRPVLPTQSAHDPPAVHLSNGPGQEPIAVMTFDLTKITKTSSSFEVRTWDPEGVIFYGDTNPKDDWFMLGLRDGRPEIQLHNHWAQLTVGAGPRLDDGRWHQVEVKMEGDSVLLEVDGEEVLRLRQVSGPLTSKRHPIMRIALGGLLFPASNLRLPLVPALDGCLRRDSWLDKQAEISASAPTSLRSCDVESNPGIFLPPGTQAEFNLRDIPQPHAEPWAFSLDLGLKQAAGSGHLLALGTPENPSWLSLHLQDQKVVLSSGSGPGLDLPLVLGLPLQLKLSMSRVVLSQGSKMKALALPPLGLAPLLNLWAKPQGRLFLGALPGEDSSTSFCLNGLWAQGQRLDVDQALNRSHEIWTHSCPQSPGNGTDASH
structure (smiles),measurement,setting,value
"N[C@@H](Cc1cc(I)c(Oc2ccc(O)c(I)c2)c(I)c1)C(=O)O [T3, 3′, 5-Triiodothyronine]","growth effect, result in words",[1]; 50% (v/v) CDE-horse serum,only supraphysiologic concentrations of thyroid hormone showed growth effects
same,"growth effect, result in words",[1]; D-MEM/F-12 with […] (v/v) CDE-horse serum,caused substantial growth
same,thyroid hormone reversal of the IgM inhibition,HT-29 cells,restored growth
"C[C@]12CC[C@@H]3c4ccc(O)cc4CC[C@H]3[C@@H]1CC[C@@H]2O [E2, 17β-estradiol]",effect of E2 in serum-free defined medium without inhibitor,MCF-7K cells,had no effect on growth rate or saturation density
same,Ka of purified human SHBG,human SHBG,2.2e+08 M⁻¹
same,effect of estrogen in serum-free defined medium without inhibitor,T47D cells,0.5 to 1.0 CPD
same,effect of estrogen in serum-free defined medium without inhibitor,T47D cells; listed as estrogen,1.0 CPD
same,increase in number of progesterone receptors per cell,[2],1.8 fold and 2.0 fold
same,Kd,[3],20 to 50 nM
same,increase in progesterone receptors,[4]; 1.0×10^−8 M,four
same,increase in progesterone receptor content,[4]; 1.0×10^−12 M,two
same,Kd,"[5]; read-out: Kd for E2, CELL EXTRACTS",0.87 nM
same,Kd,"[5]; read-out: Kd for E2, Table 5: lowest Kd",0.87 nM
same,Kd,"[5]; read-out: Kd for E2, WHOLE CELLS",1 nM
same,"Kd for E2, CELL EXTRACTS",ERβ,0.05 to 0.1 × 10^−9 M
same,effect of estrogen in serum-free defined medium without inhibitor,H301 cells,had no effect on H301 cell growth
same,Kd,[6],10500 nM
same,reversal of the inhibition caused by CDE-horse serum,LNCaP cells,reversed the CDE-serum caused inhibition completely
same,effect of E2 in serum-free defined medium without inhibitor,GH4C1 cells,had no effect on growth rate or saturation density
same,CA-PS-Pool II Ka,CA-PS-Pool II,3.55e+07 M⁻¹
same,Kd,[7],20 to 50 nM
same,effect of E2 in serum-free defined medium without inhibitor,ZR-75-1 cells,no effect
same,growth responses to the natural hormone,[8],2 to 5 CPD
same,CA-PS-Pool II Ka,[9],2.4e+07 M⁻¹
same,Kd,[9],41 nM
O=S1(=O)OC(c2ccc(O)cc2)(c2ccc(O)cc2)c2ccccc21 [Phenol Red],Percent of Control,[10],102% and 111% and 94% and 99% and 110%
